Experimental data from patent US20220354929A1, “PEPTIDES AND USES THEREOF” (LATERAL IP PTY LTD, priority 2019, published 2022).
“And” between values parts separate entries of the source, which are not always exact repeats. Equal values may be shown once. “Also recorded” adds a separate entry of the source.

Columns and labels:
[1] = test system: dorsal root afferent-mediated synaptic inputs to dorsal horn neurones; assay: whole-cell recording in spinal cord slices from Chung models: dorsal root afferent-mediated synaptic inputs (evoked EPSPs/IPSPs); type: cell-based, rat; settings: peptide 5 μM; dorsal root stimulation 0.1 Hz
Protocol: (§1) An in vitro spinal cord slice with intact dorsal root afferents combined with single-cell whole-cell patch clamp electrophysiological recording techniques was used to assess the electrophysiological properties of the peptides having the amino acid sequence of SEQ ID NO:2, 3, 4 and 5.
(§2) Chung model rats, aged 8 to 12 weeks, were housed in an air-conditioned room on a 12 hour light/dark cycle with food and water available ad libitum. The rats were terminally anaesthetized using isofluorane and decapitated. The vertebral column, rib cage and surrounding tissues were rapidly removed and pinned under ice-cold (<4° C.), high sucrose-containing artificial cerebrospinal fluid (aCSF) comprising: 127 mM sucrose, 1.9 mM KCl, 1.2 mM KH2PO4, 0.24 mM CaCl2, 3.9 mM MgCl2, 26 mM NaHCO3, 10 mM D-glucose and 0.5 mM ascorbic acid. A laminectomy was performed and the spinal cord and associated roots gently dissected and teased out of the spinal column and surrounding tissues. Dura and pia mater and ventral roots were subsequently removed with fine forceps and the spinal cord hemisected. Care was taken to ensure dorsal root inputs to the spinal cord were maintained. The hemisected spinal cord-dorsal root preparations were secured to a tissue slicer and spinal cord slices (400 to 450 μm thick) with dorsal roots attached were cut in chilled (<4° C.) high sucrose aCSF using a Leica VT1000s microtome.
(§3) Slices were transferred to a small beaker containing ice cold aCSF with 127 mM NaCl, 1.9 mM KCl, 1.2 mM KH2PO4, 1.3 mM MgCl2, 2.4 mM CaCl2, 26 mM NaHCO3 and 10 mM D-glucose, and rapidly warmed to 35° C. ±1° C. in a temperature-controlled water bath over a 20 minute period, then subsequently removed and maintained at room temperature (22° C. ±2° C.) prior to electrophysiological recording. Electrophysiological recording was performed in aCSF comprising 127 mM NaCl, 1.9 mM KCl, 1.2 mM KH2PO4, 1.3 mM MgCl2, 2.4 mM CaCl2, 26 mM NaHCO3 and 10 mM D-glucose.
Whole-cell recordings were performed at 34-35° C. from Lamina I or II neurones in the dorsal horn of the spinal cord slices using Axopatch 1D and/or Multiclamp 700B amplifies and using the “blind” version of the patch-clamp technique.
Patch pipettes were pulled from thin-walled borosilicate glass with resistances of between 3 and 8 MS2 when filled with intracellular solution (140 mM potassium gluconate, 10 mM KCl, 1 mM EGTA-Na, 10 mM HEPES, 4 mM Na2ATP, 0.3 mM Na-GTP). The peptides of SEQ ID NOs:2, 3, 4 or 5 (LAT7771, LAT7772, LAT7773 or LAT7774) were diluted in the tissue bath at a concentration of 5 μM.
A concentric bipolar stimulating electrode was placed appropriately either on the dorsal root or dorsal root entry zone to evoke postsynaptic potentials/currents in recorded cells (see FIG. 1). […] EPSPs/EPSCs were confirmed as monosynaptic on the basis of being characterised by a constant latency and rise-time with few failures.
Recordings were monitored on an oscilloscope and stored on digital audio tapes for later off-line analysis. In addition, data were low-pass filtered at 2-5 kHz, (1 kHz for voltage-clamp data), digitized at 2-10 kHz and stored on a PC running pCLAMP 10 data acquisition software (Axon Instruments). Analysis of electrophysiological data was carried out using Clampfit 10 software.

[2] = test system: dorsal horn neurones; assay: whole-cell patch clamp recording in spinal cord slices from Chung models of neuropathic pain: membrane properties of dorsal horn neurones; type: cell-based, rat; settings: peptide 5 μM
Text: as §1
The spinal nerve ligation model (Chung model) was first reported by Kim and Chung (1992; Pain, 50(3):355-63) and involves a single tight ligation of the L5 spinal nerve. […] This model has been used as a “gold standard” model for assessing the efficacy of novel compounds targeting neuropathic pain.
Adult male Sprague-Dawley rats, 8-9 weeks old, weighing 220-250 g at the time of surgery, were purchased from Charles River UK Ltd. The animals were housed in groups of 4 in an air-conditioned room on a 12-hour light/dark cycle. Food and water were available ad libitum. They were allowed to acclimatise to the experimental environment for three days by leaving them on a raised metal mesh for at least 40 min. The baseline paw withdrawal threshold (PWT) was examined using a series of graduated von Frey hairs for 3 consecutive days before surgery and re-assessed on the 6th to 8th day after surgery and on the 12th to 14th day after surgery before drug dosing. Each rat was anaesthetized with 5% isoflurane mixed with oxygen (2L per min) followed by an intramuscular (i.m.) injection of ketamine 90 mg/kg plus xylazine 10 mg/kg. The back was shaved and sterilized with povidone-iodine. The animal was placed in a prone position and a para-medial incision was made on the skin covering the L4-6 level. The L5 spinal nerve was carefully isolated and tightly ligated with 6/0 silk suture. The wound was then closed in layers after a complete hemostasis. A single dose of antibiotics (Amoxipen, 15 mg/rat, i.p.) was routinely given for prevention of infection after surgery. The animals were placed in a temperature-controlled recovery chamber until fully awake before being returned to their home cages.
as §2, §3
Whole-cell recordings were performed at 34-35° C. from Lamina I or II neurones in the dorsal horn of the spinal cord slices using Axopatch 1D and/or Multiclamp 700B amplifies and using the “blind” version of the patch-clamp technique. […]

[3] = solubility in distilled water

Question: For CRIVYDSNCG [LAT7774], which “effect on dorsal root-evoked EPSPs / excitatory synaptic transmission (in words)” value [1] is on record?
Answer: no effect on dorsal root evoked (0.1 Hz) EPSPs in 4 neurones; also recorded: minor reduction in two; also recorded: increased EPSPs in one; also recorded: both facilitating and inhibiting these inputs; also recorded: small decrease in EPSPs; also recorded: lack of effect; also recorded: increase in EPSPs

Question: And the “effect on inward rectification (in words)” value [2]?
Answer: changes in inward rectification

Question: And the “effect on membrane potential / postsynaptic membrane properties (in words)” value [2]?
Answer: little effect on a further 2 dorsal horn neurones; also recorded: hyperpolarisation; also recorded: depolarisation

Question: And the “Input Resistance, mean in presence of peptide” value ([2]; all cells)?
Answer: 294.0±62.2 MΩ and 294.0 MΩ

Question: And the “Membrane Potential, mean in presence of peptide” value ([2]; all cells, ipsilateral to injury)?
Answer: −59.8±3.6 mV and −59.8 mV

Question: What about the “Normalised Input Resistance, mean in presence of peptide” value ([2]; control = 100) of the same sequence?
Answer: 121.2

Question: What about the “Normalised Input Resistance, ΔIR” value ([2]; control = 100) of the same sequence?
Answer: −21.2

Question: What about the “reversal potential of peptide-induced response (intersection of VI relations)” value ([2]; individual neurones) of the same sequence?
Answer: around −100 mV and ~−65 mV and around −80 mV and ~−85 mV and around −95 mV and around −55 mV and around −85 mV

Question: And the “Normalised Membrane Potential, mean in presence of peptide” value ([2]; rest = 100)?
Answer: 100.9

Question: And the “Normalised Membrane Potential, ΔVm” value ([2]; rest = 100)?
Answer: −0.9

Question: What about the “solubility in distilled water” value [3] of the same sequence?
Answer: soluble
